According to article PMC5939605, “Highly luminescent, biocompatible ytterbium(III) complexes as near-infrared fluorophores for living cell imaging” (Chemical Science, 2018):
“And” between values parts separate entries of the source, which are not always exact repeats. Equal entries are not always repeated.

How the values were obtained:
[1] = set-up: method as in PMID 12895128; conditions: in CH2Cl2 ref 53; cited from earlier work
[2] = set-up: method as in PMID 22908122; conditions: in CHCl3 ref 59; cited from earlier work
[3] = NIR luminescence decay lifetime monitored at 980 nm; type: physicochemical; conditions: for Decay lifetime (τobs): bovine albumin (BSA), air-saturated, 0.1% DMSO
Method: Emission, excitation spectra and lifetime were measured on an Edinburgh Analytical Instruments FLS980 lifetime and steady state spectrometer equipped with a 450 W Xe lamp, a 60 W microsecond flash lamp, PMT R928 for the visible emission spectrum, HAMAMATSU R5509-73 PMT with a C9940-02 cooler for the NIR emission spectrum and luminescence lifetime. Excitation and emission spectra were corrected for instrumental functions (including the correction for detector, gratings etc.). All luminescence decays were exponentially tail-fitted by monoexponential functions without deconvolution for the negligible instrumental reference function in the NIR region.

[4] = n-octanol/water partition coefficient (log P); type: physicochemical
Method: Equal volumes (2000 mL) of n-octanol and water were thoroughly mixed using an oscillator and separated after 24 h. Yb^3+ complex (0.1 mg each) was then dissolved in 40 mL of the separated n-octanol and the solution and 40 mL of water (previously separated from the mixture) was added. The new water–octanol system was allowed to equilibrate for additional 24 h. After separation, both fractions were analyzed by UV-vis spectra. The log P values were calculated with the following equation:[80]1 log P = log(Coctanol/Cwater)where Coctanol and Cwater refer to the concentrations of Yb^3+ complexes in n-octanol and water, respectively.

[5] = NIR luminescence quantum yield, comparative method vs YbTPP(LOEt); type: physicochemical
Method: Quantum yields in solution were determined using a comparative method and the equation: Φs/Φr = (Gs/Gr) × (ηs^2/ηr^2), where the subscripts r and s denote the reference and sample respectively, Φ is the quantum yield, G is the slope from the plot of integrated emission intensity vs. absorbance, and η is the refractive index of the solvent.[79] The reference was YbTPP(LOEt) in CH2Cl2 ([…]).[53] Generally, YbTPP(LOEt) and the solution of Yb^3+ complex with 4 different concentrations were firstly prepared in the corresponding solvents. The absorbance of all the solutions at 410 nm was recorded on an Agilent 8453 UV-vis spectrometer equipped with an Agilent 89090A thermostat (±0.1 °C) and NIR emissions were recorded on an Edinburgh Analytical Instruments FLS980 lifetime and steady state spectrometer with the excitation wavelength at 410 nm under identical conditions. According to the ratio of the slope GYb – x/Gr (x = 1–5, 2c–5c), the relative quantum yield of Yb^3+ complexes could be obtained according to the equation described above. The absorbance values of all the samples and references are below 0.1 and the absorbance values undergo background correction by subtracting the average over a range from 800 to 820 nm. The integrated emission intensity integrated from 880 nm to 1150 nm was obtained by subtracting the blank (integrated emission intensity with only the pure solvent under identical conditions). The estimated error for the quantum yield measurements is 15%. For the quantum yield measured in degassed solution, solutions of Yb^3+ complexes with 4 different concentrations were degassed via 5 freeze–pump–thaw cycles. Then the measurement and calculation were the same as above.

[6] = Stability in solution and aqueous media (absorption / NIR luminescence, dark and 405 nm laser); type: physicochemical
Text: We also measured the ^2D NMR of Yb-4 in CH3OH as an example (Fig. S75 ^†) and only one single peak was observed.
Fig. 2 (a) Spectroscopic evaluation of Yb-4 photostability in water, PBS and FBS with 0.1% DMSO under irradiation of a 405 nm laser (0.2 W cm^–2) (inset: dark stability); (b) spectroscopic evaluation of Yb-4 and Yb-4c stabilities in pH = 5 PBS with 0.1% DMSO under irradiation of a 405 nm laser (0.2 W cm^–2). Emission intensity values were referenced to the emission intensity of Yb^3+ (980 nm) at 0 h.

[7] = DMSO, air-equil., monitored at 980 nm
[8] = DMSO, degassed, monitored at 980 nm
[9] = H2O with 0.1% DMSO, air-equil., monitored at 980 nm
[10] = H2O with 0.1% DMSO, degassed, monitored at 980 nm

Compound | τobs [3, 7] | τobs [3, 8] | τobs [3, 9] | τobs [3, 10] | Decay lifetime (τobs) ([3]; monitored at 980 nm) | log Po/w [4] | ΦYb ([5]; DMSO, air-equil.) | ΦYb ([5]; DMSO, degassed) | ΦYb ([5]; H2O with 0.1% DMSO, air-equil.) | ΦYb ([5]; H2O with 0.1% DMSO, degassed) | also measured
5,10,15,20-tetraphenylporphyrin-Yb(III)-[(cyclopentadienyl)tris(di(ethyl)phosphito)cobaltate] [YbTPP(LOEt)] |  |  |  |  |  |  |  |  |  |  | NIR luminescence quantum yield of reference [1]: 0.024
C1=Cc2nc1c(-c1ccccc1)c1nc(c(-c3ccccc3)c3ccc([nH]3)c(-c3ccccc3)c3ccc([nH]3)c2-c2ccccc2)C=C1 [TPP, tetraphenylporphyrin] |  |  |  |  |  |  |  |  |  |  | singlet oxygen quantum yield of reference (ΦΔ) [2]: 0.55
OC[C@H]1O[C@@H](Oc2ccc(C3=C4N=C(C(F)=C4F)C(c4ccc(O[C@@H]5O[C@H](CO)[C@@H](O)[C@H](O)[C@H]5O)cc4)=c4c(F)c(F)c5[n]4[Yb+][n]4c3c(F)c(F)c4C(c3ccc(O[C@@H]4O[C@H](CO)[C@@H](O)[C@H](O)[C@H]4O)cc3)=C3N=C(C(F)=C3F)C=5c3ccc(O[C@@H]4O[C@H](CO)[C@@H](O)[C@H](O)[C@H]4O)cc3)cc2)[C@H](O)[C@@H](O)[C@@H]1O.[2H]C([2H])([2H])O[P](=O)(OC([2H])([2H])[2H])[Co-]([CH]1C=CC=C1)([P](=O)(OC([2H])([2H])[2H])OC([2H])([2H])[2H])[P](=O)(OC([2H])([2H])[2H])OC([2H])([2H])[2H] [Yb-1] | 161(5) μs | 165(4) μs | 95(2) μs | 96(3) μs | 100(3) | 1.32 | 16(2) % | 16(2) % | 7.6(0.4) % | 7.7(0.5) % | 
O=C(O)c1ccc(C2=C3C=CC(=N3)C(c3c(F)c(F)c(F)c(F)c3F)=c3ccc4[n]3[Yb+][n]3c2ccc3C(c2c(F)c(F)c(F)c(F)c2F)=C2C=CC(=N2)C=4c2c(F)c(F)c(F)c(F)c2F)cc1.[2H]C([2H])([2H])O[P](=O)(OC([2H])([2H])[2H])[Co-]([CH]1C=CC=C1)([P](=O)(OC([2H])([2H])[2H])OC([2H])([2H])[2H])[P](=O)(OC([2H])([2H])[2H])OC([2H])([2H])[2H] [Yb-2c] | 52(2) μs | 52(2) μs | 38(1) μs | 41(2) μs |  | 1.26 | 6.2(0.2) % | 6.0(0.2) % | 2.5(0.2) % | 2.6(0.2) % | 
FC1=C(F)C2=C(c3ccc(C[P+](c4ccccc4)(c4ccccc4)c4ccccc4)cc3)c3c(F)c(F)c4[n]3[Yb+][n]3c(c(F)c(F)c3=C(c3ccc(C[P+](c5ccccc5)(c5ccccc5)c5ccccc5)cc3)C3=NC(=C4c4ccc(C[P+](c5ccccc5)(c5ccccc5)c5ccccc5)cc4)C(F)=C3F)=C(c3ccc(C[P+](c4ccccc4)(c4ccccc4)c4ccccc4)cc3)C1=N2.[2H]C([2H])([2H])O[P](=O)(OC([2H])([2H])[2H])[Co-]([CH]1C=CC=C1)([P](=O)(OC([2H])([2H])[2H])OC([2H])([2H])[2H])[P](=O)(OC([2H])([2H])[2H])OC([2H])([2H])[2H].[Cl-].[Cl-].[Cl-].[Cl-] [Yb-3] | 205(2) μs | 213(5) μs | 56(2) μs | 58(3) μs | 90(2) | 0.56 | 20(1) % | 21(2) % | 5.1(0.2) % | 5.2(0.3) % | 
C1=CC2=C(c3ccc(C[P+](c4ccccc4)(c4ccccc4)c4ccccc4)cc3)c3ccc4[n]3[Yb+][n]3c(ccc3=C(c3ccc(C[P+](c5ccccc5)(c5ccccc5)c5ccccc5)cc3)C3=NC(=C4c4ccc(C[P+](c5ccccc5)(c5ccccc5)c5ccccc5)cc4)C=C3)=C(c3ccc(C[P+](c4ccccc4)(c4ccccc4)c4ccccc4)cc3)C1=N2.[2H]C([2H])([2H])O[P](=O)(OC([2H])([2H])[2H])[Co-]([CH]1C=CC=C1)([P](=O)(OC([2H])([2H])[2H])OC([2H])([2H])[2H])[P](=O)(OC([2H])([2H])[2H])OC([2H])([2H])[2H].[Cl-].[Cl-].[Cl-].[Cl-] [Yb-3c] | 49(1) μs | 51(2) μs | 25(1) μs | 26(2) μs |  | 0.24 | 5.6(0.2) % | 5.6(0.2) % | 1.4(0.1) % | 1.4(0.1) % | 
C[N+]1(C)CC2(F)C3=NC(=C(c4c(F)c(F)c(F)c(F)c4F)c4c(F)c(F)c5[n]4[Yb+][n]4c(c(F)c(F)c4=C3c3c(F)c(F)c(F)c(F)c3F)=C(c3c(F)c(F)c(F)c(F)c3F)C3=NC(=C5c4c(F)c(F)c(F)c(F)c4F)C(F)=C3F)C2(F)C1.[2H]C([2H])([2H])O[P](=O)(OC([2H])([2H])[2H])[Co-]([CH]1C=CC=C1)([P](=O)(OC([2H])([2H])[2H])OC([2H])([2H])[2H])[P](=O)(OC([2H])([2H])[2H])OC([2H])([2H])[2H].[I-] (centres unmarked) [Yb-4] | 173(4) μs | 187(8) μs | 140 μs and 140(5) μs | 142(5) μs | 145(3) | 1.34 | 17(2) % | 18(2) % | 10% and 10(1) % | 10(1) % | τobs ([3]; ethanol, air-equil., λex = 410 nm, 980 nm): 86(4) μs; τobs ([3]; ethanol, degassed, λex = 410 nm, 980 nm): 99(2) μs; τobs ([3]; glycerol, air-equil., λex = 410 nm, 980 nm): 192(4) μs; τobs ([3]; glycerol, degassed, λex = 410 nm, 980 nm): 195(5) μs; τobs ([3]; i-propanol, air-equil., λex = 410 nm, 980 nm): 110(5) μs; τobs ([3]; i-propanol, degassed, λex = 410 nm, 980 nm): 120(3) μs; τobs ([3]; methanol, air-equil., λex = 410 nm, 980 nm): 68(2) μs; τobs ([3]; methanol, degassed, λex = 410 nm, 980 nm): 74(3) μs; τobs ([3]; t-butanol, air-equil., λex = 410 nm, 980 nm): 117(4) μs; τobs ([3]; t-butanol, degassed, λex = 410 nm, 980 nm): 127(3) μs; ΦYb and τobs in H2O relative to Yb-4c ([5]; H2O, air-saturated): 4 fold; photostability ([6]; pH = 5 PBS with 0.1% DMSO, 405 nm laser 0.2 W cm^–2): photostable over 4 h; NIR luminescence under continuous irradiation ([6]; water, PBS and FBS with 0.1% DMSO, 405 nm laser, 0.2 W cm^–2): did not significantly change; dark stability ([6]; water, PBS and FBS with 0.1% DMSO, NIR luminescence): high dark stability over 48 h
C[N+]1(C)CC2C3=NC(=C(c4c(F)c(F)c(F)c(F)c4F)c4ccc5[n]4[Yb+][n]4c(ccc4=C3c3c(F)c(F)c(F)c(F)c3F)=C(c3c(F)c(F)c(F)c(F)c3F)C3=NC(=C5c4c(F)c(F)c(F)c(F)c4F)C=C3)C2C1.[2H]C([2H])([2H])O[P](=O)(OC([2H])([2H])[2H])[Co-]([CH]1C=CC=C1)([P](=O)(OC([2H])([2H])[2H])OC([2H])([2H])[2H])[P](=O)(OC([2H])([2H])[2H])OC([2H])([2H])[2H].[I-] (centres unmarked) [Yb-4c] | 49(2) μs | 50(2) μs | 35 μs and 35(1) μs | 38(2) μs |  | 1.33 | 5.4(0.2) % | 5.5(0.2) % | 2.3% and 2.3(0.2) % | 2.4(0.1) % | photobleaching ([6]; pH = 5 PBS with 0.1% DMSO, 405 nm laser 0.2 W cm^–2, 4 h): 55%
